# Reference: ChEMBL document CHEMBL1201862, “PubChem BioAssay data set” (2004)
#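 Test compounds were applied to cells in 96-well plates for 48 hours at 5 doses. GI50 is the concentration that inhibits growth by half.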 The source made the active and inactive calls. No stated cut-off is given here; in the data, active = GI50 up to about 1.1 µM and inactive = higher.
# Columns and labels:
# Experiment in all cases: NCI tumour cell line growth inhibition, 48 h
# [1] = test system: SK-MEL-28
# [2] = test system: BT-549
# [3] = test system: MDA-MB-435
# [4] = test system: KM12
# [5] = test system: COLO 205
# [6] = test system: SF-295
# [7] = test system: SK-OV-3
# [8] = test system: UACC-257
# [9] = test system: MDA-N
# [10] = test system: CCRF-CEM
# [11] = test system: NCI-H460
# [12] = test system: RPMI-8226
# [13] = test system: SW-620
# [14] = test system: SNB-19
# [15] = test system: HCC 2998
# [16] = test system: A498
# [17] = test system: UACC-62
# [18] = test system: OVCAR-5
# [19] = test system: NCI-H522
# [20] = test system: A549
# [21] = test system: HOP-62
# [22] = test system: NCI-H23
# [23] = test system: IGROV-1
# [24] = test system: U-251
# [25] = test system: SK-MEL-2
# [26] = test system: MOLT-4
# [27] = test system: HCT-116
# [28] = test system: HCT-15
# [29] = test system: SK-MEL-5
# [30] = test system: PC-3
# [31] = test system: K562
# [32] = test system: OVCAR-3
# [33] = test system: CAKI-1
# [34] = test system: UO-31
# [35] = test system: SNB-75
# [36] = test system: HOP-92
# [37] = test system: OVCAR-4
# [38] = test system: HT-29
# [39] = test system: TK-10
# [40] = test system: ACHN
# [41] = test system: SF-268
# [42] = test system: 786-0
# [43] = test system: SF-539
# [44] = test system: RXF 393
# [45] = test system: NCI/ADR-RES
# [46] = test system: M14
# [47] = test system: LOX IMVI
# [48] = test system: DU-145
# [49] = test system: SN12C
# [50] = test system: NCI-H226
# [51] = test system: SR
# [52] = test system: MCF7
# [53] = test system: MDA-MB-231
# [54] = test system: HL-60
# [55] = test system: OVCAR-8
# [56] = test system: EKVX
# [57] = test system: Malme-3M
# [58] = test system: Hs-578T
# [59] = test system: T47D
compound,measurement,setting,value
CC(=O)OC1COC(n2c3ccccc3c3ccc4c5ccccc5[nH]c4c32)C(OC(C)=O)C1OC(C)=O (centres undefined),GI50,[1],37.8 µM (inactive)
same,GI50,[2],89.3 µM (inactive)
same,GI50,[3],39.1 µM (inactive)
same,GI50,[4],17.8 µM (inactive)
same,GI50,[5],39.1 µM (inactive)
same,GI50,[6],15.1 µM (inactive)
same,GI50,[7],18.6 µM (inactive)
same,GI50,[8],> 100 µM (inactive)
same,GI50,[9],53.3 µM (inactive)
same,GI50,[10],70.3 µM (inactive)
same,GI50,[11],21.3 µM (inactive)
same,GI50,[12],95.7 µM (inactive)
same,GI50,[13],41.2 µM (inactive)
same,GI50,[14],61.4 µM (inactive)
same,GI50,[15],61.8 µM (inactive)
same,GI50,[16],32.8 µM (inactive)
same,GI50,[17],67.9 µM (inactive)
same,GI50,[18],23.4 µM (inactive)
same,GI50,[19],18.2 µM (inactive)
same,GI50,[20],44.8 µM (inactive)
same,GI50,[21],22.9 µM (inactive)
same,GI50,[22],36.8 µM (inactive)
same,GI50,[23],0.0512 µM (active)
same,GI50,[24],29.2 µM (inactive)
same,GI50,[25],58.1 µM (inactive)
same,GI50,[26],> 100 µM (inactive)
same,GI50,[27],65.9 µM (inactive)
same,GI50,[28],70 µM
same,GI50,[29],36 µM (inactive)
same,GI50,[30],27.2 µM (inactive)
same,GI50,[31],0.6 µM (active)
same,GI50,[32],27 µM (inactive)
same,GI50,[33],29.2 µM (inactive)
same,GI50,[34],38.6 µM (inactive)
same,GI50,[35],0.29 µM (active)
same,GI50,[36],30.1 µM (inactive)
same,GI50,[37],37.6 µM (inactive)
same,GI50,[38],22.3 µM (inactive)
CN(C)C1(c2cc3ccccc3s2)CCCCC1,GI50,[39],47.2 µM (inactive)
same,GI50,[2],64.9 µM (inactive)
same,GI50,[40],51.2 µM (inactive)
same,GI50,[41],18.8 µM (inactive)
same,GI50,[3],35.7 µM (inactive)
same,GI50,[42],22.2 µM (inactive)
same,GI50,[4],36.5 µM (inactive)
same,GI50,[43],50.1 µM (inactive)
same,GI50,[5],26.4 µM (inactive)
same,GI50,[6],26.6 µM (inactive)
same,GI50,[7],39.5 µM (inactive)
same,GI50,[8],28.1 µM (inactive)
same,GI50,[9],32.2 µM (inactive)
same,GI50,[10],< 0.01 µM (active)
same,GI50,[11],29.2 µM (inactive)
same,GI50,[44],25.5 µM (inactive)
same,GI50,[13],0.125 µM (active)
same,GI50,[45],44.1 µM (inactive)
same,GI50,[14],49 µM (inactive)
same,GI50,[15],22.9 µM (inactive)
same,GI50,[16],32.8 µM (inactive)
same,GI50,[17],20.5 µM (inactive)
same,GI50,[46],17.5 µM (inactive)
same,GI50,[18],22.5 µM (inactive)
same,GI50,[19],16.7 µM (inactive)
same,GI50,[47],22.5 µM (inactive)
same,GI50,[48],54.8 µM (inactive)
same,GI50,[49],53.2 µM (inactive)
same,GI50,[20],51.2 µM (inactive)
same,GI50,[21],58.1 µM (inactive)
same,GI50,[22],49.8 µM (inactive)
same,GI50,[23],36.1 µM (inactive)
same,GI50,[24],43.6 µM (inactive)
same,GI50,[25],24.3 µM (inactive)
same,GI50,[50],44.9 µM (inactive)
same,GI50,[26],19.2 µM (inactive)
same,GI50,[27],33.9 µM (inactive)
same,GI50,[28],37.4 µM
same,GI50,[29],17.4 µM (inactive)
same,GI50,[51],18 µM (inactive)
same,GI50,[52],48.6 µM (inactive)
same,GI50,[30],28.8 µM (inactive)
same,GI50,[31],18 µM (inactive)
same,GI50,[53],65.6 µM (inactive)
same,GI50,[32],48.6 µM (inactive)
same,GI50,[33],61.5 µM (inactive)
same,GI50,[34],30.9 µM (inactive)
same,GI50,[54],< 0.01 µM (active)
same,GI50,[35],32.6 µM (inactive)
same,GI50,[36],1.79 µM (inactive)
same,GI50,[55],51.3 µM (inactive)
same,GI50,[37],47.2 µM (inactive)
same,GI50,[56],> 100 µM (inactive)
same,GI50,[38],33 µM (inactive)
CCOC(=O)Cn1c(=O)c2nc(SC)sc2n(-c2ccc(C)cc2)c1=S,GI50,[39],36.7 µM (inactive)
same,GI50,[1],> 100 µM (inactive)
same,GI50,[57],40.4 µM (inactive)
same,GI50,[40],48.1 µM (inactive)
same,GI50,[41],30.1 µM (inactive)
same,GI50,[3],99.5 µM (inactive)
same,GI50,[42],18.1 µM (inactive)
same,GI50,[43],36.1 µM (inactive)
same,GI50,[5],> 100 µM (inactive)
same,GI50,[6],> 71.6 µM (inactive)
same,GI50,[7],45.8 µM (inactive)
same,GI50,[8],> 100 µM (inactive)
same,GI50,[9],> 100 µM (inactive)
same,GI50,[10],> 100 µM (inactive)
same,GI50,[11],48 µM (inactive)
same,GI50,[12],> 100 µM (inactive)
same,GI50,[44],22.8 µM (inactive)
same,GI50,[13],> 100 µM (inactive)
same,GI50,[45],50.6 µM (inactive)
same,GI50,[14],20.4 µM (inactive)
same,GI50,[15],> 56.9 µM (inactive)
same,GI50,[16],46.8 µM (inactive)
same,GI50,[17],43.8 µM (inactive)
same,GI50,[58],19.2 µM (inactive)
same,GI50,[46],> 61.7 µM (inactive)
same,GI50,[18],> 100 µM (inactive)
same,GI50,[19],79.6 µM (inactive)
same,GI50,[47],> 100 µM (inactive)
same,GI50,[48],98.4 µM (inactive)
same,GI50,[49],> 52.2 µM (inactive)
same,GI50,[20],> 60.4 µM (inactive)
same,GI50,[21],20 µM (inactive)
same,GI50,[22],> 49 µM (inactive)
same,GI50,[23],55.3 µM (inactive)
same,GI50,[24],24.5 µM (inactive)
same,GI50,[25],23.7 µM (inactive)
same,GI50,[50],23.8 µM (inactive)
same,GI50,[26],> 100 µM (inactive)
same,GI50,[27],> 71.8 µM (inactive)
same,GI50,[28],> 100 µM
same,GI50,[29],> 100 µM (inactive)
same,GI50,[51],> 100 µM (inactive)
same,GI50,[52],> 100 µM (inactive)
same,GI50,[30],38.1 µM (inactive)
same,GI50,[31],> 100 µM (inactive)
same,GI50,[59],> 87.1 µM (inactive)
same,GI50,[53],52.7 µM (inactive)
same,GI50,[32],50.4 µM (inactive)
same,GI50,[33],> 100 µM (inactive)
same,GI50,[34],48.6 µM (inactive)
same,GI50,[54],> 100 µM (inactive)
same,GI50,[35],9.71 µM (inactive)
same,GI50,[36],21.6 µM (inactive)
same,GI50,[55],36.6 µM (inactive)
same,GI50,[37],10.2 µM (inactive)
same,GI50,[56],74.3 µM (inactive)
same,GI50,[38],> 87.3 µM (inactive)
